Structures are written as SMILES.

This note sets out measurements from US8993041B2, “Taste masked active pharmaceutical powder compositions and processes for making them” (New Jersey Institute of Technology, priority 2012, dated 2015).

The nature of series [1]: Angle of repose (AoR/AOR) of powder. Format: physicochemical. The source says:
Both of these ibuprofen powders could not be fluidized sufficiently prior to coating, yet both of the coated ibuprofen particles were well fluidized after dry coating.
The operating conditions for coating step 2 may be established by a skilled person giving consideration, for example, to particle agglomeration and providing reduced angle of repose (AOR) values for the coated API powder. The degree of particle agglomeration may be determined by measuring the size of the coated particles in SEM images. The degree of agglomeration may also be estimated using the dispersion pressure titration in the Rodos/Helos system (Rodos and Helos, Sympatec, Lawrenceville, N.J., USA). A discussion of the pressure titration may be found in Han, X., Ghoroi, C., To, D., Chen, Y., Davë, R., “Simultaneous micronization and surface modification for improvement of flow and dissolution of drug particles (2011).” International Journal of Pharmaceutics, vol. 415, pp. 185-195, which is incorporated in its entirety by reference. The AOR may be measured using the procedure of ASTM D6393-99, “Bulk Solids Characterization by CARR Indices.” For example, when the Comil is used, the impeller speed may be optimized to reduce the agglomeration (FIG. 3) as higher impeller speed […] agglomerate size for the silica coated API powders.
M5P hydrophilic silica has a particle size of 20 nm and is manufactured by Cabot

The nature of series [2]: Flow function coefficient (FFC), shear cell of FT 4 tester. Format: physicochemical.
[3] abbreviates: finer ibuprofen powder, median size about 41 micron.

As for `CC(C)Cc1ccc(C(C)C(=O)O)cc1` (centres unmarked) [ibuprofen], the AoR entry in series [1] (setting [3]) is reported as “about 58 degrees”; in series [1] (ibuprofen median particle size about 74 micron, Hosokawa Powder Tester, ASTM D6393-08) it was “about 55 degrees”. The AOR in series [1] (flow properties of ibuprofen before and after dry coating with silica) stood at 55 °. Further, the FFC result in series [2] (setting [3]) is “about 2.8”; in series [2] (ibuprofen median particle size about 74 micron, pre-consolidation of 3 kPa), “about 5”.
